Measured values from publication PMC4830892, “A microarray-based approach to evaluate the functional significance of protein-binding motifs” (Analytical and Bioanalytical Chemistry, 2016).
Read-outs that look alike come from different tables or passages of the source. Non-standard residues stand in square brackets, D forms with d. Residues, ends and D or L forms follow the SMILES beside them. pY = N[C@@H](Cc1ccc(OP(=O)(O)O)cc1)C(=O)O

Tests used:
[1] = molecular target: α-phosphotyrosine antibody (α-pTyr 100); assay: Titration of α-pY antibody on peptide microarrays; type: binding; conditions: for Kd: peptide microarray, α-pY antibody 0.06 to 6.66 nM, 3 h at 4 °C, indirect immunofluorescence (Alexa633), bimolecular binding isotherm (Eq. 1), average ± standard deviation, six independent experiments; for affinity of the α-pY antibody (in words): compared with the other pY peptides
Procedure: (§1) Peptides that correspond to known interaction motifs involved in the formation of protein complexes in T cell signalling were purchased from EMC microcollections (Tübingen, Germany). All peptides carried an extra cysteine residue and a free N-terminus for immobilisation on the microarray substrates and a C-terminal amidation (see Electronic Supplementary Material (ESM), Table S1).
(§2) For generation of microarrays, peptide stock solutions (3 mM) in DMF were diluted 30 times with phosphate buffer (100 mM, pH 8) supplemented with 0.006 % (v/v) Triton X-100. N-Hydroxysuccinimide-preactivated slides served as substrates for immobilisation (Nexterion Slide H, Schott Nexterion/Peq-Lab, Erlangen, Germany) using a Nano-Plotter NP2.0 (GeSIM, Großerkmannshof, Germany), which employs piezo-driven pipetting tips to dispense peptide solutions. Microarray slides comprised 16 subarrays of doublets of each peptide. For each peptide, a volume of 1.2 nl was dispensed at a centre-to-centre spacing of 500 μm. During printing, temperature was maintained at 15 °C and air humidity at 65 %.
(§3) Sixteen incubation chambers with identical subarrays consisting of peptides derived from binding motifs of signalling proteins (see ESM Table S1) were generated by attaching a clip-on frame to the microarray substrate (ProPlate Multiarray System, Grace Biolabs, Molecular Probes, Eugene, OR, USA). The typical incubation volume for the subarrays was 50 μl. Microarrays were either incubated with an α-pY antibody (α-pTyr 100, 9411, Cell Signalling, Frankfurt am Main, Germany) at the indicated concentrations or co-incubated with cell lysate at the indicated concentrations for 3 h at 4 °C. Additionally, in another set of experiments, recombinant GRB2-SH2 was incubated on microarrays alone or co-incubated with cell lysate employing an α-penta HIS antibody (34600, Qiagen, Hilden, Germany) for the detection of His-tagged GRB2-SH2.
(§4) After incubation, microarrays were washed three times with washing buffer (PBS, 0.05 % (w/v) BSA, 0.05 % (w/v) Tween-20). For the detection of signals, microarrays were incubated with a secondary α-mouse antibody conjugated with Alexa633 (A-21050, Invitrogen) at a concentration of 1 μg/ml for 15 min at RT followed by a last washing step with washing buffer. Microarrays were dried with nitrogen and scanned using a ProScanArray (PerkinElmer Life Sciences, Waltham, Massachusetts), and the data were analysed using ArrayPro Analyzer software (Media Cybernetics, Silver Spring, USA) as described before. Final data represented the mean signal intensities corrected for the median of a ring-shaped local background surrounding the respective peptide spot. Titrations with α-pY antibody and GRB2-SH2 were performed to calculate dissociation constants (see below).
The resulting titration curves were fitted with Origin (OriginLab Corporation, v.6.1057, Northampton, USA) using a binding isotherm for a bimolecular interaction (Eq. 1):1 Fabs=Fmaxprot/Kd+prot Fabs represents the intensity of a microarray spot after background correction and [prot] the concentration of the titrated binder. Kd and Fmax were obtained from the fits.
To render this approach quantitative, first the affinities of the α-pY antibody towards the phosphotyrosine motifs of the microarrays were determined. […] The titration curves were fitted with a binding isotherm for a bimolecular interaction (Eq. 1, Fig. 2a, Table 1). In general, a coefficient of determination (R^2) of 0.8 was used as a cutoff in order to score a peptide as a binder. […] Regarding the poly-proline motif (PP) containing peptides present on the microarray, only on the peptide GAB2-509 in five experiments, a titration curve with an R^2 > 0.8 could be generated.

[2] = system: proteins in Jurkat cell lysate (total cellular proteome); assay: Competition of α-pY antibody binding with Jurkat cell lysate on peptide microarrays; conditions: for Kd: from EC50 and Kd α-pY by Cheng-Prusoff equation (Eq. 4), ± standard deviation
Procedure: as §1, §2
(§5) Jurkat T cell leukaemia cells were maintained in RPMI 1640 medium (PAN-Biotech, Aisenbach, Germany) supplemented with 10 % foetal calf serum at 37 °C in 5 % CO2. For the preparation of lysates, cells were resuspended in lysis buffer (1 % Triton X-100, 50 mM n-octyl-D-glucopyranoside (Fluka, Taufkirchen, Germany), 20 mM Tris, 1 mM EDTA, 150 mM NaCl, 1 mM Na3VO4, pH 7.5, and complete protease inhibitor cocktail (Roche Applied Science, Mannheim, Germany)). Incubation on ice for 1 h was followed by centrifugation at 20,000×g at 4 °C for 15 min to remove cell debris. Transmembrane proteins were extracted from lipid rafts by using N-octyl-D-glucopyranoside. Protein concentrations were measured by Bradford Assay.
as §3, §4
For determination of EC50 values for competition with cell lysate, curves were fitted according to2 y=y0+Ae^−x/t with y0 as the signal intensity of the α-pY antibody or the recombinant GRB2-SH2 domain without cell lysate, A the amplitude, x the protein concentration in lysate, and t the decay constant. […]

[3] = system: SH2 domain of GRB2 (GRB2-SH2); conditions: cited from earlier work; for binding to GRB2 / GRB2-SH2 (in words): Kd values of GRB2-SH2 described in recently published manuscript, ref [14]
From the text: In contrast, the data points for LATpY191 and SHP1pY564, and SigpY437, ZAPpY319 and CDζpY72/83 were above or below the linear correlation defined by the first four peptides. […] SigpY437, in contrast, is a poor binder for which already low concent ...

[4] = system: proteins in Jurkat cell lysate (total cellular proteome); assay: Competition of recombinant GRB2-SH2 binding with cell lysate on peptide microarrays
Procedure: as §5
The PCR product of the SH2 domain of GRB2 (GRB2-SH2) was cloned into the pET160/GW/D-TOPO vector (Invitrogen, Breda, The Netherlands), which contains a region encoding for a His-tag. The plasmid was used to perform a transformation into One Shot TOP10 competent cells (Invitrogen). […] The concentration of expressed protein was determined by photometric measurements at OD280. The concentration of GRB2-SH2 was determined in Western blots by quantitatively analysing obtained bands of purified GRB2-SH2 in an Odyssey Infrared Imaging System (Li-Cor Biosciences, Bad Homburg, Germany) in comparison with a bovine serum albumin (BSA) standard. […]

SMILES | Kd [1] [nM] | Kd [2] [µM] | binding to GRB2 / GRB2-SH2 (in words) [3] | affinity of the α-pY antibody (in words) [1] | loss of signal of the α-pY antibody on competition with cell lysate ([2]; result in words, Jurkat lysate up to 180 μM total protein) | competition of GRB2-SH2 by cell lysate (in words) [4] | affinity for the SH2 domain of GRB2 (in words) ([3]; ref [25], [26]) | affinity for the SH2 domain of GRB2 (in words) ([3]; same as stated for LATpY191 (strong affinity for SH2 domain of GRB2), ref [27])
CC(C)C[C@H](NC(=O)[C@H](Cc1ccc(OP(=O)(O)O)cc1)NC(=O)CNC(=O)[C@@H]1CCCN1C(=O)[C@H](CC(N)=O)NC(=O)[C@H](Cc1c[nH]cn1)NC(=O)[C@H](Cc1ccc(O)cc1)NC(=O)[C@H](CC(=O)O)NC(=O)[C@H](CC(=O)O)NC(=O)[C@H](CCC(=O)O)NC(=O)[C@H](CC(=O)O)NC(=O)[C@H](CCC(=O)O)NC(=O)[C@@H](N)CS)C(=O)N[C@H](C(=O)N[C@H](C(=O)N[C@@H](CC(C)C)C(=O)N1CCC[C@H]1C(=O)N[C@@H](CC(=O)O)C(=O)N[C@@H](CO)C(=O)N[C@H](C(=O)N1CCC[C@H]1C(N)=O)[C@@H](C)O)C(C)C)C(C)C [LATpY132] (H-CEDEDDYHNPG[pY]LVVLPDSTP-NH2) | 0.41 ± 0.38 | 11 ± 13 | good binder | – | – | – | – | –
CC(C)C[C@H](NC(=O)[C@H](CCC(=O)O)NC(=O)[C@H](CCC(N)=O)NC(=O)[C@H](CO)NC(=O)[C@@H](NC(=O)[C@H](CC(N)=O)NC(=O)[C@@H](NC(=O)[C@H](Cc1ccc(OP(=O)(O)O)cc1)NC(=O)[C@H](CCC(=O)O)NC(=O)[C@H](CCCNC(=N)N)NC(=O)[C@H](CO)NC(=O)CNC(=O)[C@H](CC(=O)O)NC(=O)[C@H](CC(C)C)NC(=O)[C@H](CO)NC(=O)[C@H](C)NC(=O)[C@H](CCC(=O)O)NC(=O)[C@@H](N)CS)C(C)C)C(C)C)C(N)=O [LATpY191] (H-CEASLDGSRE[pY]VNVSQEL-NH2) | 0.35 ± 0.28 | 16 ± 15 | – | high affinity | total loss of signal | rather small competition | strong affinity | –
CC(C)C[C@H](NC(=O)[C@H](CCC(=O)O)NC(=O)[C@H](CCC(N)=O)NC(=O)[C@H](CC(C)C)NC(=O)[C@H](CC(N)=O)NC(=O)[C@H](CCC(=O)O)NC(=O)[C@H](Cc1ccc(OP(=O)(O)O)cc1)NC(=O)[C@H](CC(=O)O)NC(=O)[C@@H]1CCCN1C(=O)[C@H](C)NC(=O)CNC(=O)[C@H](CCC(=O)O)NC(=O)[C@H](CCC(=O)O)NC(=O)[C@H](CCC(=O)O)NC(=O)[C@@H](NC(=O)[C@H](CCC(=O)O)NC(=O)[C@@H](N)CS)C(C)C)C(=O)N[C@@H](CC(N)=O)C(N)=O [LATpY226] (H-CEVEEEGAPD[pY]ENLQELN-NH2) | 0.44 ± 0.27 | 15 ± 11 | good binder | – | – | – | – | –
CSCC[C@H](NC(=O)[C@@H]1CCCN1C(=O)[C@H](CC(N)=O)NC(=O)[C@H](C)NC(=O)[C@H](CCC(=O)O)NC(=O)[C@@H](NC(=O)[C@H](Cc1ccc(OP(=O)(O)O)cc1)NC(=O)[C@H](Cc1ccccc1)NC(=O)CNC(=O)[C@@H]1CCCN1C(=O)[C@H](CC(N)=O)NC(=O)[C@H](CCCNC(=N)N)NC(=O)CNC(=O)[C@H](CCC(=O)O)NC(=O)[C@@H](N)CS)C(C)C)C(=O)N1CCC[C@H]1C(=O)N[C@H](C(N)=O)[C@@H](C)O [PLCγpY783] (H-CEGRNPGF[pY]VEANPMPT-NH2) | 0.55 ± 0.33 | 7 ± 2 | good binder | – | – | – | – | –
CC(C)C[C@H](NC(=O)[C@H](CC(N)=O)NC(=O)[C@H](CCC(=O)O)NC(=O)[C@H](Cc1ccc(OP(=O)(O)O)cc1)NC(=O)[C@@H](NC(=O)[C@H](CC(=O)O)NC(=O)[C@H](CCC(=O)O)NC(=O)[C@H](CCCCN)NC(=O)[C@H](Cc1c[nH]cn1)NC(=O)[C@H](CCCCN)NC(=O)[C@H](CO)NC(=O)[C@@H](N)CS)C(C)C)C(=O)N[C@@H](Cc1c[nH]cn1)C(=O)N[C@H](C(=O)N[C@@H](CCCCN)C(=O)N[C@@H](CC(N)=O)C(=O)N[C@@H](CCCCN)C(N)=O)[C@@H](C)O [SHP1pY564] (H-CSKHKEDV[pY]ENLHTKNK-NH2) | 0.89 ± 0.57 | 17 ± 10 | – | relatively low affinity | – | – | – | The same holds true
CC[C@H](C)[C@H](NC(=O)[C@H](CCCNC(=N)N)NC(=O)[C@H](C)NC(=O)[C@@H]1CCCN1C(=O)[C@H](CCC(=O)O)NC(=O)[C@@H]1CCCN1C(=O)[C@@H](NC(=O)[C@H](Cc1ccc(OP(=O)(O)O)cc1)NC(=O)CNC(=O)[C@H](CC(=O)O)NC(=O)[C@H](CO)NC(=O)[C@H](CC(N)=O)NC(=O)[C@H](CC(C)C)NC(=O)[C@@H](NC(=O)[C@H](CC(=O)O)NC(=O)[C@@H](NC(=O)[C@@H](N)CS)[C@@H](C)CC)[C@@H](C)O)[C@@H](C)O)C(=O)N[C@H](C(N)=O)[C@@H](C)O [ZAPpY296] (H-CIDTLNSDG[pY]TPEPARIT-NH2) | 1.32 ± 0.59 | 27 ± 28 | good binder | relatively low affinity | – | – | – | –
